The results in this text go back to PubChem BioAssay (NCI).

Some test systems named below: MDA-MB-231 breast; DU-145 prostate; HCT-116 colon; 786-0 renal; SNB-75 CNS; SK-MEL-5 melanoma; NCI/ADR-RES ovarian; K-562 leukemia; HCT-15 colon; UACC-62 melanoma.
What all share (assay): NCI tumour cell line growth inhibition, 48 h

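Assay format: 96-well plates, 48-hour exposure. GI50 marks 50% less growth. TGI is the concentration that stops growth completely.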

For `CCc1cc(Cc2cc(CC)cc(C(C)(C)C)c2O)c(O)c(C(C)(C)C)c1`, the GI50 with MDA-MB-231 breast was 1870 nM; with DU-145 prostate, 3530 nM; in the assay on HCT-116 colon it was 2090 nM; in the assay on 786-0 renal, 3500 nM; in the assay on SNB-75 CNS it was 3370 nM; in the assay on SK-MEL-5 melanoma, 3630 nM. For the same compound, the GI50 with NCI/ADR-RES ovarian was 3940 nM; in the assay on K-562 leukemia it was 3370 nM; with HCT-15 colon, 3.13 µM; with UACC-62 melanoma, 2400 nM. For the same compound, the TGI in the assay on MDA-MB-231 breast stood at 3.92 µM; in the assay with DU-145 prostate, 13 µM; in the assay on HCT-116 colon, 5.82 µM; in the assay on 786-0 renal, 14.4 µM; in the assay with SNB-75 CNS, 14.1 µM; in the assay with SK-MEL-5 melanoma, 12.7 µM. For the same compound, the TGI in the assay on NCI/ADR-RES ovarian was 14.7 µM; with K-562 leukemia it was 13.9 µM; in the assay with HCT-15 colon it was 11 µM; in the assay on UACC-62 melanoma it was 7.85 µM.

Regarding `COc1ccc2c(c1)cn1c3ccc(OC)cc3[nH]c(=O)c21`, the GI50 in the assay on MDA-MB-231 breast was less than 18.8 nM; in the assay on DU-145 prostate it was less than 21.7 nM; in the assay with HCT-116 colon, less than 15.7 nM; in the assay with 786-0 renal, less than 23.1 nM; in the assay with SNB-75 CNS, 20.3 nM; in the assay with SK-MEL-5 melanoma it was less than 19 nM. The GI50 with NCI/ADR-RES ovarian was less than 10 nM; in the assay on HCT-15 colon, less than 0.0177 µM; with UACC-62 melanoma it was less than 17.4 nM. Further, the TGI in the assay on MDA-MB-231 breast stood at 0.27 µM; in the assay on HCT-116 colon, 1.05 µM; in the assay on 786-0 renal, 1.56 µM; in the assay with SNB-75 CNS, 1.19 µM; with SK-MEL-5 melanoma, 0.76 µM; in the assay on HCT-15 colon, 1.11 µM. Also, in the assay with UACC-62 melanoma, the TGI was 1.39 µM.

Regarding `COc1cc(-c2nc3cc(Cl)c(Cl)cc3[nH]2)ccc1OCC(=O)N=Nc1c(O)[nH]c2ccccc12`, the GI50 is 450 nM in the assay with MDA-MB-231 breast; 501 nM in the assay with DU-145 prostate; 445 nM in the assay with HCT-116 colon; 370 nM with 786-0 renal; 1230 nM with SNB-75 CNS; 541 nM in the assay on SK-MEL-5 melanoma. For the same compound, the GI50 is greater than 79900 nM in the assay on NCI/ADR-RES ovarian, 345 nM in the assay on K-562 leukemia and 1410 nM in the assay on UACC-62 melanoma. Also, the TGI in the assay with MDA-MB-231 breast is 1.69 µM; in the assay on DU-145 prostate it was 1.9 µM; in the assay on HCT-116 colon, 1.55 µM; with 786-0 renal, 1.54 µM; in the assay with SNB-75 CNS, 2.65 µM; in the assay with SK-MEL-5 melanoma, 1.76 µM. In addition, the TGI was greater than 100 µM in the assay on NCI/ADR-RES ovarian, greater than 31.7 µM in the assay on K-562 leukemia, greater than 56.5 µM with HCT-15 colon and 2.75 µM in the assay with UACC-62 melanoma.

For `CCOc1ccc(-n2cc(-c3ccc(N(C)C)cc3)[n+]3c2CCCCC3)cc1`, the GI50 in the assay with MDA-MB-231 breast was 1930 nM; in the assay on DU-145 prostate, 1820 nM; with HCT-116 colon, 267 nM; in the assay on 786-0 renal it was 2690 nM; with SNB-75 CNS, 906 nM; in the assay with SK-MEL-5 melanoma it was 95.8 nM. Besides, the GI50 with NCI/ADR-RES ovarian was 31100 nM; in the assay with K-562 leukemia it was 128 nM; in the assay with HCT-15 colon it was 10.1 µM; with UACC-62 melanoma, 199 nM. Moreover, the TGI in the assay on MDA-MB-231 breast is greater than 27.8 µM; in the assay on DU-145 prostate it was greater than 100 µM; in the assay with HCT-116 colon it was greater than 100 µM; in the assay on 786-0 renal, greater than 100 µM; in the assay on SNB-75 CNS, 17.7 µM; with SK-MEL-5 melanoma, 0.475 µM. The TGI in the assay with NCI/ADR-RES ovarian is greater than 100 µM; in the assay on K-562 leukemia it was greater than 100 µM; in the assay with HCT-15 colon, greater than 100 µM; in the assay with UACC-62 melanoma it was 13.5 µM.

Consider `COC(=O)/C=C/c1cc(OC)c2c(c1)[C@@H](C(=O)OC)[C@H](c1ccc(OC)c(OC)c1)O2`, for which the GI50 in the assay with MDA-MB-231 breast is 7390 nM; in the assay with DU-145 prostate, 2800 nM; in the assay with HCT-116 colon, 528 nM; in the assay with 786-0 renal it was 4890 nM; with SNB-75 CNS it was 432 nM; in the assay on SK-MEL-5 melanoma, 901 nM. The GI50 is 768 nM in the assay on NCI/ADR-RES ovarian, 0.486 µM in the assay with HCT-15 colon and 972 nM in the assay with UACC-62 melanoma. Also, the TGI in the assay with MDA-MB-231 breast, in the assay with DU-145 prostate, in the assay with HCT-116 colon, in the assay with 786-0 renal, in the assay on SNB-75 CNS and with SK-MEL-5 melanoma was greater than 100 µM each time. The TGI in the assay with NCI/ADR-RES ovarian, with HCT-15 colon and in the assay on UACC-62 melanoma was greater than 100 µM each time.

Regarding `OC(c1cc2c(Cl)cc(Cl)cc2c2cc(C(F)(F)F)ccc12)C1CCCCN1` (centres undefined), the GI50 was 1480 nM with MDA-MB-231 breast; 2000 nM with DU-145 prostate; 1670 nM in the assay on HCT-116 colon; 1660 nM in the assay on 786-0 renal; 1790 nM with SNB-75 CNS; 1730 nM with SK-MEL-5 melanoma. The results for the GI50 with NCI/ADR-RES ovarian and with UACC-62 melanoma were 1770 nM and 1780 nM, respectively. For the same compound, the TGI came out at 3.24 µM in the assay on MDA-MB-231 breast; 3.55 µM in the assay with DU-145 prostate; 3.37 µM in the assay with HCT-116 colon; 3.5 µM in the assay on 786-0 renal; 3.36 µM with SNB-75 CNS; 3.12 µM in the assay with SK-MEL-5 melanoma. Also, the figures for the TGI in the assay with NCI/ADR-RES ovarian and in the assay on UACC-62 melanoma were 3.64 µM and 3.42 µM, respectively.

With `C/C(=N\O)c1ccc(Nc2cc(-c3ccccc3)nc3c(O)cccc23)cc1`, the GI50 in the assay with MDA-MB-231 breast is 2460 nM; with DU-145 prostate it was 13500 nM; in the assay on HCT-116 colon it was 13200 nM; in the assay on 786-0 renal it was 17200 nM; with SNB-75 CNS it was 16300 nM; with NCI/ADR-RES ovarian, 8540 nM. Further, the GI50 in the assay with K-562 leukemia is 15200 nM; with HCT-15 colon it was 4.75 µM; with UACC-62 melanoma, 13400 nM. In addition, the TGI was determined as 11.8 µM in the assay on MDA-MB-231 breast; 28.5 µM in the assay on DU-145 prostate; 25.9 µM with HCT-116 colon; 31.8 µM in the assay with 786-0 renal; 31.8 µM with SNB-75 CNS; 35.5 µM in the assay on NCI/ADR-RES ovarian. In addition, the TGI in the assay with K-562 leukemia turned out to be 97.6 µM; with HCT-15 colon it was 26.4 µM; with UACC-62 melanoma it was 27.1 µM.

On to `COc1ccc(/C=N/C2=C(C#N)C(c3ccccc3)c3ccc4ccccc4c3O2)cc1` (centres undefined), for which the GI50 with MDA-MB-231 breast is 522 nM; in the assay on DU-145 prostate it was 428 nM; in the assay with HCT-116 colon, 402 nM; with 786-0 renal, 492 nM; in the assay with SK-MEL-5 melanoma, 336 nM; in the assay on NCI/ADR-RES ovarian, 262 nM. Besides, the figures for the GI50 with K-562 leukemia, in the assay on HCT-15 colon and in the assay with UACC-62 melanoma were 230 nM, 0.509 µM and 491 nM, respectively. For the same compound, the TGI in the assay on MDA-MB-231 breast is 8.39 µM; with DU-145 prostate, greater than 100 µM; in the assay on HCT-116 colon, greater than 37.8 µM; in the assay with 786-0 renal it was greater than 100 µM; in the assay on SK-MEL-5 melanoma, 7.95 µM; in the assay on K-562 leukemia, greater than 100 µM. Besides, the TGI in the assay with HCT-15 colon and in the assay with UACC-62 melanoma was greater than 100 µM each time.
